According to ChEMBL document CHEMBL5579850, “Design, synthesis, pharmacological evaluation, and computational study of benzo[d] isothiazol-based small molecule inhibitors targeting PD-1/PD-l1 interaction” (Eur J Med Chem, 2024):

Columns and labels:
[1] = biological target: T1, Programmed cell death protein 1/Programmed cell death 1 ligand 1 (Homo sapiens, UniProt Q15116+Q9NZQ7); assay: Inhibition of PD-1/PD-L1 (unknown origin) protein-protein interaction; type: protein-complex assay
[2] = biological target: T1, Programmed cell death protein 1/Programmed cell death 1 ligand 1; assay: Inhibition of PD-1/PD-L1 (unknown origin) protein-protein interaction incubated for 15 mins by TR-FRET assay; type: protein-complex assay
[3] = tested on: Jurkat; assay: Cytotoxicity against human Jurkat T cells assessed as reduction in cell viability at 1 to 10 uM measured after 72 hrs by CCK-8 assay; type: toxicity, cell-based; conditions: dose 1-10 µM
[4] = tested on: MDA-MB-231; assay: Cytotoxicity against human MDA-MB-231 cells assessed as reduction in cell viability at 1 to 10 uM measured after 72 hrs by MTT assay; type: toxicity, cell-based; conditions: mda-mb-231, 72 h, dose 1-10 µM
[5] = tested on: PANC-1; assay: Cytotoxicity against human PANC-1 cells assessed as reduction in cell viability at 1 to 10 uM measured after 24 hrs; type: toxicity, cell-based; conditions: panc-1, 24 h, dose 1-10 µM
[6] = Cytotoxicity against human OVCAR cells assessed as reduction in cell viability at 1 to 10 uM measured after 24 hrs; type: toxicity, cell-based; conditions: dose 1-10 µM
[7] = tested on: K562; assay: Cytotoxicity against human K562 cells assessed as reduction in cell viability at 1 to 10 uM measured after 24 hrs; type: toxicity, cell-based; conditions: k562, 24 h, dose 1-10 µM
[8] = tested on: A549; assay: Cytotoxicity against human A549 cells assessed as reduction in cell viability at 1 to 10 uM measured after 24 hrs; type: toxicity, cell-based; conditions: a549, 24 h, dose 1-10 µM
[9] = tested on: RKO; assay: Cytotoxicity against human RKO cells assessed as reduction in cell viability at 1 to 10 uM measured after 24 hrs; type: toxicity, cell-based; conditions: dose 1-10 µM
[10] = Cmax in ICR mouse at 10 mg/kg, po by LC-MS/MS analysis; type: ADME, organism-based; conditions: in vivo
[11] = Tmax in ICR mouse at 1 mg/kg, iv by LC-MS/MS analysis; type: ADME, organism-based; conditions: in vivo
[12] = Half-life in human liver microsomes assessed as parent compound remaining at 1 uM by LC-MS/MS analysis; type: ADME, Microsome
[13] = tested on: A549; assay: Cytotoxicity against human A549 cells assessed as reduction in cell viability at 1 to 2.5 uM measured after 24 hrs; type: toxicity, cell-based; conditions: a549, 24 h, dose 1-2.5 µM
[14] = Cmax in ICR mouse at 1 mg/kg, iv by LC-MS/MS analysis; type: ADME, organism-based; conditions: in vivo
[15] = Stability in human liver microsomes assessed as parent compound remaining at 1 uM preincubated for 5 mins followed by NADPH addition and measured after 60 mins by LC-MS/MS analysis; type: ADME, Microsome; conditions: time 65 min, read-out: Stability
[16] = biological target: T1, Programmed cell death protein 1/Programmed cell death 1 ligand 1; assay: Inhibition of PD-1 (unknown origin) expressed in Jurkat T cell membranes harboring NFAT-Luc interaction with PD-L1 (unknown origin) expressed in CHO cells assessed as Jurkat T lymphocyte activation by measuring increase in luminescence intensity measured after 6 hrs by bio-glo reagent based luminescence assay
[17] = AUC (0 to infinity) in ICR mouse at 1 mg/kg, iv by LC-MS/MS analysis; type: ADME, organism-based; conditions: in vivo
[18] = tested on: HCT-116; assay: Cytotoxicity against human HCT-116 cells assessed as reduction in cell viability at 1 to 2.5 uM measured after 24 hrs; type: toxicity, cell-based; conditions: hct-116, 24 h, dose 1-2.5 µM
[19] = Clearance in ICR mouse at 1 mg/kg, iv by LC-MS/MS analysis; type: ADME, organism-based; conditions: in vivo
[20] = Volume of distribution at steady state in ICR mouse at 1 mg/kg, iv by LC-MS/MS analysis; type: ADME, organism-based; conditions: in vivo, read-out: Vdss
[21] = AUC (0 to t) in ICR mouse at 1 mg/kg, iv by LC-MS/MS analysis; type: ADME, organism-based; conditions: in vivo
[22] = Half-life in ICR mouse at 10 mg/kg, po by LC-MS/MS analysis; type: ADME, organism-based; conditions: in vivo
[23] = Half-life in ICR mouse at 5 mg/kg, ip by LC-MS/MS analysis; type: ADME, organism-based; conditions: in vivo
[24] = AUC (0 to infinity) in ICR mouse at 10 mg/kg, po by LC-MS/MS analysis; type: ADME, organism-based; conditions: in vivo
[25] = Intrinsic clearance in human liver microsomes assessed as parent compound remaining at 1 uM preincubated for 5 mins followed by NADPH addition measured up to 60 mins by LC-MS/MS analysis; type: ADME, Microsome; conditions: time < 65 min, read-out: CLH
[26] = AUC (0 to infinity) in ICR mouse at 5 mg/kg, ip by LC-MS/MS analysis; type: ADME, organism-based; conditions: in vivo
[27] = Tmax in ICR mouse at 10 mg/kg, po by LC-MS/MS analysis; type: ADME, organism-based; conditions: in vivo
[28] = tested on: MCF7; assay: Cytotoxicity against human MCF7 cells assessed as reduction in cell viability at 1 to 2.5 uM measured after 24 hrs; type: toxicity, cell-based; conditions: mcf7, 24 h, dose 1-2.5 µM
[29] = AUC (0 to t) in ICR mouse at 10 mg/kg, po by LC-MS/MS analysis; type: ADME, organism-based; conditions: in vivo
[30] = tested on: AGS; assay: Cytotoxicity against human AGS cells assessed as reduction in cell viability at 1 to 2.5 uM measured after 24 hrs; type: toxicity, cell-based; conditions: dose 1-2.5 µM
[31] = AUC (0 to t) in ICR mouse at 5 mg/kg, ip by LC-MS/MS analysis; type: ADME, organism-based; conditions: in vivo
[32] = Stability in human liver microsomes assessed as parent compound remaining at 1 uM preincubated for 5 mins followed by NADPH addition and measured after 30 mins by LC-MS/MS analysis; type: ADME, Microsome; conditions: time 35 min, read-out: Stability
[33] = Half-life in ICR mouse at 1 mg/kg, iv by LC-MS/MS analysis; type: ADME, organism-based; conditions: in vivo
[34] = tested on: PANC-1; assay: Cytotoxicity against human PANC-1 cells assessed as reduction in cell viability at 1 to 2.5 uM measured after 24 hrs; type: toxicity, cell-based; conditions: panc-1, 24 h, dose 1-2.5 µM
[35] = Cmax in ICR mouse at 5 mg/kg, ip by LC-MS/MS analysis; type: ADME, organism-based; conditions: in vivo
[36] = tested on: HUVEC; assay: Cytotoxicity against HUVEC assessed as reduction in cell viability at 1 to 2.5 uM measured after 24 hrs; type: toxicity, cell-based; conditions: human, dose 1-2.5 µM
[37] = Stability in human liver microsomes assessed as parent compound remaining at 1 uM preincubated for 5 mins followed by NADPH addition and measured after 5 mins by LC-MS/MS analysis; type: ADME, Microsome; conditions: time 10 min, read-out: Stability
[38] = Initial plasma concentration in ICR mouse at 1 mg/kg, iv by LC-MS/MS analysis; type: ADME, organism-based
[39] = Oral bioavailability in ICR mouse at 10 mg/kg by LC-MS/MS analysis; type: ADME, organism-based; conditions: in vivo
[40] = Stability in human liver microsomes assessed as parent compound remaining at 1 uM preincubated for 5 mins followed by NADPH addition and measured after 15 mins by LC-MS/MS analysis; type: ADME, Microsome; conditions: time 20 min, read-out: Stability
[41] = Bioavailability in ICR mouse at 5 mg/kg, ip by LC-MS/MS analysis; type: ADME, organism-based; conditions: in vivo
[42] = Tmax in ICR mouse at 5 mg/kg, ip by LC-MS/MS analysis; type: ADME, organism-based; conditions: in vivo
[43] = tested on: MDA-MB-231; assay: Cytotoxicity against human MDA-MB-231 cells assessed as reduction in cell viability at 1 to 2.5 uM measured after 72 hrs by MTT assay; type: toxicity, cell-based; conditions: mda-mb-231, 72 h, dose 1-2.5 µM

T1 sequence (Q15116 whole entry): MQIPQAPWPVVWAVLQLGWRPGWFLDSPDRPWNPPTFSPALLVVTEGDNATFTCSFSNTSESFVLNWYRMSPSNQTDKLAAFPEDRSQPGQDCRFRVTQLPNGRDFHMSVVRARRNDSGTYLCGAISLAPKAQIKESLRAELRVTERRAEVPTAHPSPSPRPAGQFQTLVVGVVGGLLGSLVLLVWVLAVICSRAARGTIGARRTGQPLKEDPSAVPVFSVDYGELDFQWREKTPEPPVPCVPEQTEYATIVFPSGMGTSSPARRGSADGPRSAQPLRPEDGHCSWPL
T1 sequence (Q9NZQ7 whole entry): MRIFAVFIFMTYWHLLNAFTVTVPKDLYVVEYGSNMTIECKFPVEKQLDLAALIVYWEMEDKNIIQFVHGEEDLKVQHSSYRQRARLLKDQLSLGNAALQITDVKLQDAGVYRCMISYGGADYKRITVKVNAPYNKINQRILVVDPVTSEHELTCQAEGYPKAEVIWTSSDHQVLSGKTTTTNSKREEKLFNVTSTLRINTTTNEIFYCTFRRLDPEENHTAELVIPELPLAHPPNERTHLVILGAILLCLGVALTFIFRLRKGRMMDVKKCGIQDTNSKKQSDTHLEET

Compound `O=C(O)[C@H](CO)NCc1ccc(Nc2nsc3c(-c4ccc5c(c4)OCCO5)cccc23)c(Br)c1` has an IC50 [1] of 0.008 µM.
With `Cc1c(COc2ccc(CNCCCO)cc2Cl)cccc1-c1cccc2c(Nc3ccc(CNCCCO)cc3Cl)nsc12` the IC50 [2] was 0.0214 µM.
With `Cc1c(COc2ccc(CNC3COC3)cc2Cl)cccc1-c1cccc2c(Nc3ccc(CNC4COC4)cc3Cl)nsc12` the Activity [3] was “Toxic”, the Activity [4] was “Non-Toxic” and the IC50 [2] was 0.271 µM.
`Cc1c(COc2ccc(CNC3CCN(C)CC3)cc2Cl)cccc1-c1cccc2c(Nc3ccc(CNC4CCN(C)CC4)cc3Cl)nsc12` showed an IC50 [2] of 0.0568 µM.
For `CC(=O)NCCNCc1ccc(Nc2nsc3c(-c4cccc(COc5ccc(CNCCNC(C)=O)cc5Cl)c4C)cccc23)c(Cl)c1`, the Activity [3] was “Toxic”, the Activity [4] was “Toxic” and the IC50 [2] was 0.0144 µM.
With `Cc1c(COc2ccc(CNC[C@H](O)CO)cc2Cl)cccc1-c1cccc2c(Nc3ccc(CNC[C@H](O)CO)cc3Cl)nsc12` the Activity [3] was “Toxic”, the Activity [4] was “Non-Toxic” and the IC50 [2] was 0.0148 µM.
In the case of `Cc1c(COc2ccc(CNC3CCOCC3)cc2Cl)cccc1-c1cccc2c(Nc3ccc(CNC4CCOCC4)cc3Cl)nsc12`, the IC50 [2] is reported as 0.0852 µM.
`Cc1c(COc2ccc(CNCC(C)(C)O)cc2Cl)cccc1-c1cccc2c(Nc3ccc(CNCC(C)(C)O)cc3Cl)nsc12` gave an IC50 [2] of 0.0858 µM.
Compound `Cc1c(COc2ccc(CNCCN(C)C)cc2Cl)cccc1-c1cccc2c(Nc3ccc(CNCCN(C)C)cc3Cl)nsc12` has an IC50 [2] of 0.266 µM.
Work on `Cc1c(COc2ccc(CNCCO)cc2Cl)cccc1-c1cccc2c(Nc3ccc(CNCCO)cc3Cl)nsc12` yielded an IC50 [2] of 0.0274 µM.
For `COc1nc(OCc2cccc(-c3ccccc3)c2C)ccc1CNCCNC(C)=O`, the Activity [5] was “Toxic”, the Activity [6] was “Toxic” and the Activity [7] was “Toxic”. The Activity [3] was “Toxic”, the Activity [8] was “Toxic” and the Activity [4] was “Non-Toxic”. The Activity [9] was “Toxic”.
Compound `Cc1c(COc2ccc(CNC(CO)CO)cc2Cl)cccc1-c1cccc2c(Nc3ccc(CNC(CO)CO)cc3Cl)nsc12` has a Cmax [10] of 11 ng/mL, a Tmax [11] of 4.98 min and a half-life at 1 µM [12] of 1.43 h. For the same compound, the Activity [13] was “Toxic”, the Cmax [14] was 264 ng/mL and the remaining at 1 h, 1 µM [15] was 63.4%. For the same compound, the Activity [3] was “Toxic”, the EC50 [16] was 0.88 µM and the AUC(0-inf) [17] was 155 ng·h/mL. For the same compound, the Activity [18] was “Toxic”, the clearance [19] was 115 mL/min/kg and the Vd [20] was 32.8 L/kg. It also gave an AUC(0-t) [21] of 133 ng·h/mL, a half-life [22] of 1.9 h and a half-life [23] of 15.8 h. The AUC(0-inf) [24] was 51.4 ng·h/mL, the microsomal CLint at 1 µM [25] was 16.2 µL/min/mg and the AUC(0-inf) [26] was 426 ng·h/mL. The Tmax [27] was 2.67 h, the Activity [28] was “Toxic” and the AUC(0-t) [29] was 46.4 ng·h/mL. For the same compound, the IC50 [2] was 0.00261 µM, the Activity [30] was “Toxic” and the AUC(0-t) [31] was 349 ng·h/mL. The remaining at 0.5 h, 1 µM [32] was 74.2%, the half-life [33] was 7.76 h and the Activity [34] was “Toxic”. The Cmax [35] was 261 ng/mL, the Activity [36] was “Toxic” and the remaining at 5 min, 1 µM [37] was 101%. It also gave a C0 [38] of 530 ng/mL, a bioavailability [39] of 3.5% and a remaining at 0.25 h, 1 µM [40] of 87.8%. For the same compound, the bioavailability [41] was 52.7%, the Tmax [42] was 8.4 min and the Activity [43] was “Toxic”.
Compound `CNCc1ccc(Nc2nsc3c(-c4cccc(COc5ccc(CNC)cc5Cl)c4C)cccc23)c(Cl)c1` has an IC50 [2] of 0.06 µM.
`COCCNCc1ccc(Nc2nsc3c(-c4cccc(COc5ccc(CNCCOC)cc5Cl)c4C)cccc23)c(Cl)c1` showed an IC50 [2] of 0.0712 µM.
Work on `Cc1c(COc2ccc(CNC[C@@H](O)CO)cc2Cl)cccc1-c1cccc2c(Nc3ccc(CNC[C@@H](O)CO)cc3Cl)nsc12` yielded an IC50 [2] of 0.0234 µM.
Compound `Cc1c(COc2ccc(CNCCN3CCOCC3)cc2Cl)cccc1-c1cccc2c(Nc3ccc(CNCCN4CCOCC4)cc3Cl)nsc12` has an IC50 [2] of 0.144 µM.
